Measured values as given in ChEMBL document CHEMBL1641557, “3-(Pyridin-2-yl-ethynyl)benzamide metabotropic glutamate receptor 5 negative allosteric modulators: hit to lead studies” (Bioorg Med Chem Lett, 2011).
Each block holds one compound with its values, some of them ahead of it.

Legend:
[1] = Half life in rat liver microsomes; assay type: ADME, Microsome
[2] = Half life in Beagle dog at 2 mg/kg, iv; assay type: ADME, organism-based, Canis lupus familiaris; parameters: dose 2 mg/kg, route intravenous; details: in vivo
[3] = Half life in Swiss Webster mouse at 2 mg/kg, iv; assay type: ADME, organism-based; parameters: dose 2 mg/kg, route intravenous; details: in vivo
[4] = Half life in Sprague-Dawley rat at 2 mg/kg, iv; assay type: ADME, organism-based; parameters: dose 2 mg/kg, route intravenous; details: in vivo
[5] = Volume of distribution at steady state in Beagle dog at 2 mg/kg, iv; assay type: ADME, organism-based, Canis lupus familiaris; parameters: dose 2 mg/kg, route intravenous; details: in vivo, read-out: Vdss
[6] = Volume of distribution at steady state in Sprague-Dawley rat at 2 mg/kg, iv; assay type: ADME, organism-based; parameters: dose 2 mg/kg, route intravenous; details: in vivo, read-out: Vdss
[7] = Volume of distribution at steady state in Swiss Webster mouse at 2 mg/kg, iv; assay type: ADME, organism-based; parameters: dose 2 mg/kg, route intravenous; details: in vivo, read-out: Vdss
[8] = Clearance in Beagle dog at 2 mg/kg, iv; assay type: ADME, organism-based, Canis lupus familiaris; parameters: dose 2 mg/kg, route intravenous; details: in vivo
[9] = Clearance in Sprague-Dawley rat at 2 mg/kg, iv; assay type: ADME, organism-based; parameters: dose 2 mg/kg, route intravenous; details: in vivo
[10] = Clearance in Swiss Webster mouse at 2 mg/kg, iv; assay type: ADME, organism-based; parameters: dose 2 mg/kg, route intravenous; details: in vivo
[11] = Cmax in Swiss Webster mouse at 10 mg/kg, po; assay type: ADME, organism-based; parameters: dose 10 mg/kg, route oral; details: in vivo
[12] = Cmax in Sprague-Dawley rat at 10 mg/kg, po; assay type: ADME, organism-based; parameters: dose 10 mg/kg, route oral; details: in vivo
[13] = Cmax in Beagle dog at 10 mg/kg, po; assay type: ADME, organism-based, Canis lupus familiaris; parameters: dose 10 mg/kg, route oral; details: in vivo
[14] = AUClast in Swiss Webster mouse at 10 mg/kg, po; assay type: ADME, organism-based; parameters: time 0 - last, dose 10 mg/kg, route oral; details: plasma
[15] = AUClast in Sprague-Dawley rat at 10 mg/kg, po; assay type: ADME, organism-based; parameters: time 0 - last, dose 10 mg/kg, route oral; details: plasma
[16] = AUClast in Beagle dog at 10 mg/kg, po; assay type: ADME, organism-based, Canis lupus familiaris; parameters: time 0 - last, dose 10 mg/kg, route oral; details: plasma
[17] = Oral bioavailability in Swiss Webster mouse at 10 mg/kg; assay type: ADME, organism-based; details: in vivo
[18] = Oral bioavailability in Sprague-Dawley rat at 10 mg/kg; assay type: ADME, organism-based; details: in vivo
[19] = Oral bioavailability in Beagle dog at 10 mg/kg; assay type: ADME, organism-based, Canis lupus familiaris; details: in vivo
[20] = Ratio of drug level in brain to plasma in Swiss Webster mouse at 10 mg/kg, po; assay type: ADME, organism-based; parameters: dose 10 mg/kg, route oral
[21] = Ratio of drug level in brain to plasma in Sprague-Dawley rat at 10 mg/kg, po; assay type: ADME, organism-based; parameters: dose 10 mg/kg, route oral
[22] = Cmax in Swiss Webster mouse brain at 10 mg/kg, po; assay type: ADME, organism-based; parameters: dose 10 mg/kg, route oral
[23] = Cmax in Sprague-Dawley brain rat at 10 mg/kg, po; assay type: ADME, organism-based; parameters: dose 10 mg/kg, route oral

- half-life [1]: 4 min
Structure (SMILES): COc1ccc(C#Cc2cccc(C(=O)N3CCN(c4ccccn4)CC3)c2)cc1

- half-life [1]: 13 min
Structure (SMILES): Cc1ccc(N2CCN(C(=O)c3cccc(C#Cc4ccccc4)c3)CC2)nc1

- half-life [1]: 13 min
Structure (SMILES): COc1ccc(C(=O)N2CCN(c3ccccn3)CC2)cc1C#Cc1ccccc1

- half-life [1]: 5 min
Structure (SMILES): COc1ccc(C(=O)N2CCN(c3cnccn3)CC2)cc1C#Cc1ccccc1

- half-life [1]: 21 min
Structure (SMILES): COc1ccc(C(=O)N2CCN(c3ccncn3)CC2)cc1C#Cc1ccccc1

- half-life [1]: 16 min
Structure (SMILES): COc1ccc(C(=O)N2CCN(c3ccc(C)cn3)CC2)cc1C#Cc1ccccc1

- half-life [1]: 13 min
Structure (SMILES): Cc1ccc(C(=O)N2CCN(c3ccccn3)CC2)cc1C#Cc1ccccc1

- half-life [1]: 7 min
Structure (SMILES): COc1ccc(C(=O)N2CCN(c3ccncn3)CC2)cc1C#Cc1cccc(Cl)c1

- half-life [1]: 18 min
Structure (SMILES): COc1ccc(C(=O)N2CCN(c3ccncn3)CC2)cc1C#Cc1ccccn1

The remaining lines, values behind:

Structure (SMILES): O=C(c1cccc(C#Cc2ccccc2)c1)N1CCN(c2ccccn2)CC1
- half-life [1]: 3 min

Structure (SMILES): COc1cccc(C#Cc2cccc(C(=O)N3CCN(c4ccccn4)CC3)c2)c1
- half-life [1]: 3 min

Structure (SMILES): Nc1cccc(C#Cc2cccc(C(=O)N3CCN(c4ccccn4)CC3)c2)c1
- half-life [1]: 2 min

Structure (SMILES): Cc1ccc(C#Cc2cccc(C(=O)N3CCN(c4ccccn4)CC3)c2)cc1
- half-life [1]: 5 min

Structure (SMILES): O=C(c1cccc(C#CCc2ccccc2)c1)N1CCN(c2ccccn2)CC1
- half-life [1]: 4 min

Structure (SMILES): O=C(c1cccc(C#Cc2ccccn2)c1)N1CCN(c2ccccn2)CC1
- half-life [1]: 5 min

Structure (SMILES): O=C(c1cccc(C#Cc2ccccc2)c1)N1CCN(c2cnccn2)CC1
- half-life [1]: 4 min

Structure (SMILES): O=C(c1cccc(C#Cc2ccccc2)c1)N1CCN(c2ccncn2)CC1
- half-life [1]: 3 min

Structure (SMILES): Cc1ccc(C(=O)N2CCN(c3cnccn3)CC2)cc1C#Cc1ccccc1
- half-life [1]: 9 min

Structure (SMILES): COc1ccc(C(=O)N2CCN(c3ccccn3)CC2)cc1C#Cc1ccccn1
- half-life [2]: 126 min
- half-life [3]: 12 min
- half-life [4]: 60 min
- Vd [5]: 0.5 L/kg
- Vd [6]: 0.9 L/kg
- Vd [7]: 3.2 L/kg
- clearance [8]: 3 mL/min/kg
- clearance [9]: 12 mL/min/kg
- clearance [10]: 121 mL/min/kg
- half-life [1]: 23 min
- Cmax [11]: 3.5 µM
- Cmax [12]: 11.9 µM
- Cmax [13]: 16.4 µM
- AUC(0-t) [14]: 519 ng·h/mL
- AUC(0-t) [15]: 13400 ng·h/mL
- AUC(0-t) [16]: 47100 ng·h/mL
- bioavailability [17]: 20%
- bioavailability [18]: 85%
- bioavailability [19]: 80%
- Kp [20]: 0.31
- Kp [21]: 0.15
- Cmax [22]: 1.09 µM
- Cmax [23]: 1.79 µM

Structure (SMILES): COc1ccc(C(=O)N2CCN(c3ccccn3)CC2)cc1C#Cc1cccc(C)n1
- half-life [1]: 11 min

Structure (SMILES): COc1ccc(C(=O)N2CCN(c3ccccn3)CC2)cc1C#Cc1nccs1
- half-life [1]: 15 min

Structure (SMILES): COc1ccc(C(=O)N2CCN(c3ccc(C)cn3)CC2)cc1C#Cc1ccccn1
- half-life [1]: > 30 min
